Experimental data as given in patent publication US9587223B2, “Protocols for making hepatocytes from embryonic stem cells” (Asterias Biotherapeutics, Inc., priority 2000, dated 2017).

Assays:
[1] = tested on: hES derived embryoid bodies; test: Marker analysis by immunocytochemistry, PAS glycogen stain and BrdU labelling; format: cell-based, human; conditions: 20% FBS and 5 mM sodium n-butyrate
Experimental: The morphology of the differentiated cells was remarkably uniform, showing a large polygonal surface and binucleated center characteristic of mature hepatocytes.
On the sixth day after plating in the differentiation agent, the cells were analyzed for expression of markers by RT-PCR and immunocytochemistry. Glycogen content in these cells was determined using periodic acid Schiff stain. The number of cells in S phase of cell cycle was determined by incubating the cells with 10 μM BrdU on day 5 after plating, and subsequently staining with anti-BrdU antibody 24 hours later.

[2] = tested on: hES cells (embryoid bodies)
Experimental: In this experiment, hES cells were maintained on primary mouse embryonic fibroblasts in serum-free medium according to standard methods.
The EBs were fed every other day.
Various analogs of butyrate were also tested at 5 mM.

CCCC(=O)[O-].[Na+] [sodium n-butyrate]
% positive cells, BrdU staining ([1]; 10 μM BrdU on day 5, stained 24 hours later): 16% | % positive cells, Glycogen staining ([1]; periodic acid Schiff stain): 60% | % positive cells, Albumin ([1]; sixth day after plating): 55% | % positive cells, CK8 ([1]; sixth day after plating): 100% | % positive cells, CK18 ([1]; sixth day after plating): 100% | % positive cells, CK19 ([1]; sixth day after plating): 100% | % positive cells, Desmin ([1]; sixth day after plating): 0% | % positive cells, α1-antitrypsin ([1]; sixth day after plating): 90% | % positive cells, α-fetoprotein ([1]; sixth day after plating): 0% | cell survival one day after plating ([2]; EBs plated in 20% FBS and 5 mM sodium butyrate): large proportion of apparently dead cells

CC(/C=C/C(=O)NO)=C\[C@@H](C)C(=O)c1ccc(N(C)C)cc1 [Trichostatin A]
toxicity to cells ([2]; at 2.5-100 μM): toxic | hepatocyte differentiation ([2]; at 10-50 nM): ineffective | hepatocyte differentiation and selection against other cell types ([2]; at 75-100 nM): appeared both to induce hepatocyte differentiation, and to select against survival of other cell types
